Assay results published in patent publication US11261466B2, “Homologous recombination factors” (Sinai Health System, priority 2015, dated 2022).

Tested on: USP11
Experiment: USP11 immunoblotting of irradiated U2OS cells (USP11 stability after DNA damage)
Type: cell-based
Settings: irradiated (20 Gy), inhibitor at 5 μM, USP11 immunoblot, FIG. 11g
Protocol: FIG. 11. Characterization of USP11 protein stability a, U2OS cells synchronized in G1 or S/G2 were treated with cyclohexamide (CHX) and processed at the indicated time points to monitor USP11 stability. b, Immunoprecipitation (IP) of PALB2 from extracts prepared from 293T cells that were synchronized in G1 or S phase and treated or not with IR (20 Gy). c, U2OS cells were irradiated with a dose of 2 or 20 Gy and processed for USP11 immunoblotting at the indicated times post-IR. Actin was used as a loading control. d, U2OS cells, mock-treated or incubated with the ATM inhibitor KU55933 (ATMi), ATR inhibitor VE-821 (ATRi) or DNA-PKcs inhibitor NU7441 (DNAPKi), were irradiated (20 Gy) and processed for USP11 and actin (loading control) immunoblotting. e, Similar experiment to d except that cells were exposed to ultraviolet (UV) radiation (50 mJ/cm^−2). f, U2OS cells, mock-treated or incubated with the proteasome inhibitor MG132, were irradiated (20 Gy) and processed for USP11 and actin (loading control) immunoblotting. g, U2OS cells, mock-treated or incubated with the Cullin inhibitor MLN4924, were irradiated (20 Gy) and processed for USP11 and actin (loading control) immunoblotting. […]

Q: `NS(=O)(=O)OC[C@@H]1C[C@@H](n2ccc3c(N[C@H]4CCc5ccccc54)ncnc32)C[C@@H]1O` [MLN4924] was tested. Which “DNA damage-induced degradation of USP11” value did it give?
A: protected USP11 from DNA damage-induced degradation
